In brackets after ≈: the same amount, converted by molar mass. Like-named read-outs stand apart in the source and are kept apart here.
Legend:
[1] = system: M. tuberculosis inside the host macrophage; experiment: QIM: Quantification of Intracellular Mycobacteria (intracellular growth assay, phenotypic cell-based); settings: Mycobacterium tuberculosis
Description: Accordingly, a phenotypic cell-based assay, suitable for high throughput screening, which allows for the search of compounds that would prevent M. tuberculosis multiplication inside the host macrophage was utilized (WO2010003533A2), overcoming many of the numerous and burdensome steps involved in previous methodologies (Arain et al., 1996).
(§1) A 120,000 small molecule compound library was screened using a validated phenotypic cell-based assay (WO2010003533A2). Active compounds from the primary screen were confirmed via dose response in the intracellular (QIM) assay and an in vitro (QUM) assay, wherein the abbreviation “QIM” stands for Quantification of Intracellular Mycobacteria and the abbreviation “QUM” stands for Quantification of in vitro grown Mycobacteria. […] The MIC is the minimum concentration of compound required to obtain 80% bacterial growth inhibition.
(§2) The imidazopyridine compounds (scaffolds Ia and Ib; see Table 1) underwent derivatization according to the methods outlined below (Schemes 1-13). Resulting derivatives were examined for inhibitory activity (MIC) using the assays described above (Example 1) and the results are summarized in Table 1.

[2] = system: in vitro grown Mycobacteria (M. tuberculosis); experiment: QUM: Quantification of in vitro grown Mycobacteria (in vitro growth fluorescence assay); format: cell-based; settings: Mycobacterium tuberculosis
Description: as §1, §2

[3] = MIC, 80% bacterial growth inhibition, intracellular growth, read-out: QIM
[4] = MIC, 80% bacterial growth inhibition, in vitro growth, read-out: QUM

Compound	MIC [1, 3] [µM]	MIC [2, 4] [µM]	also measured
Cc1nc2ccccn2c1C(=O)O [Compound 1, 2-Methylimidazo[1,2-a]pyridine-3-carboxylic acid]	> 20	> 20	–
CCOC(=O)c1c(C)nc2cc(-c3ccccc3)ccn12 [Compound 2, Ethyl 2-methyl-7-phenylimidazo[1,2-a]pyridine-3-carboxylate]	> 20	> 20	–
Cc1nc2cc(-c3ccccc3)ccn2c1C(=O)O [Compound 3, 2-Methyl-7-phenylimidazo[1,2-a]pyridine-3-carboxylic acid]	> 20	> 20	–
CCOC(=O)c1c(C)nc2ccc(-c3ccccc3)cn12 [Compound 4, Ethyl 2-methyl-6-phenylimidazo[1,2-a]pyridine-3-carboxylate]	> 20	> 20	–
Cc1nc2ccccn2c1C(=O)Nc1ccncc1 [Compound 5, 2-Methyl-N-(pyridin-4-yl)imidazo[1,2-a]pyridine-3-carboxamide]	> 20	> 20	–
Cc1nc2ccccn2c1C(=O)Nc1ccc(Oc2ccccc2)cc1 [Compound 6, 2-Methyl-N-(4-phenoxyphenyl)imidazo[1,2-a]pyridine-3-carboxamide]	> 20	> 20	–
Cc1nc2ccccn2c1C(=O)Nc1ccc(OCc2ccccc2)cc1 [Compound 7, N-(4-(Benzyloxy)phenyl)-2-methylimidazo[1,2-a]pyridine-3-carboxamide]	> 20	> 20	–
Cc1nc2ccccn2c1C(=O)NCc1ccccc1 [Compound 8, N-Benzyl-2-methylimidazo[1,2-a]pyridine-3-carboxamide]	–	–	MIC ([1]; read-out: QIM (μM)): 1 to 20 µM (≈ 0.265 to 5.31 µg/mL); MIC ([1]; dose response confirmation, 80% bacterial growth inhibition, read-out: minimum inhibitory concentration (MIC), QIM assay): 2.5 µM (≈ 0.663 µg/mL); MIC ([2]; read-out: QUM (μM)): > 20 µM; MIC ([2]; dose response confirmation, 80% bacterial growth inhibition, read-out: minimum inhibitory concentration (MIC), QUM assay): 5 µM (≈ 1.33 µg/mL)
Cc1nc2ccccn2c1C(=O)NCc1ccc(F)cc1 [Compound 9, N-(4-Fluorobenzyl)-2-methylimidazo[1,2-a]pyridine-3-carboxamide]	> 20	> 20	–
COC(=O)c1ccc(CNC(=O)c2c(C)nc3ccccn23)cc1 [Compound 10, Methyl 4-((2-me3thylimidazo[1,2-a]pyridine-3-carboxamido)methyl)benzoate]	> 20	1 to 20 (≈ 0.323 to 6.47 µg/mL)	–
Cc1nc2ccccn2c1C(=O)NCc1ccc(C(=O)O)cc1 [Compound 11, 4-((2-Methylimidazo[1,2-a]pyridine-3-carboxamido)methyl)benzoic acid]	> 20	> 20	–
COc1ccc(CNC(=O)c2c(C)nc3ccccn23)cc1 [Compound 12, N-(4-Methoxybenzyl)-2-methylimidazo[1,2-a]pyridine-3-carboxamide]	1 to 20 (≈ 0.295 to 5.91 µg/mL)	1 to 20 (≈ 0.295 to 5.91 µg/mL)	–
Cc1nc2ccccn2c1C(=O)NCc1cccnc1 [Compound 13, 2-Methyl-N-(pyridin-3-ylmethyl)imidazo[1,2-a]pyridine-3-carboxamide]	> 20	> 20	–
Cc1nc2ccccn2c1C(=O)NCc1ccncc1 [Compound 14, 2-Methyl-N-(pyridin-4-ylmethyl)imidazo[1,2-a]pyridine-3-carboxamide]	> 20	> 20	–
Cc1nc2ccccn2c1C(=O)NCc1ccc(Oc2ccccc2)cc1 [Compound 15, 2-Methyl-N-(4-phenoxybenzyl)imidazo[1,2-a]pyridine-3-carboxamide]	< 1	1 to 20 (≈ 0.357 to 7.15 µg/mL)	–
Cc1nc2ccccn2c1C(=O)NCc1ccc(-c2ccccc2)cc1 [Compound 16, N-(Biphenyl-4-ylmethyl)-2-methylimidazo[1,2-a]pyridine-3-carboxamide]	< 1	< 1	–
Cc1nc2ccccn2c1C(=O)NCc1ccc2[nH]ccc2c1 [Compound 17, N-((1H-Indol-5-yl)methyl)-2-methylimidazo[1,2-a]pyridine-3-carboxamide]	1 to 20 (≈ 0.304 to 6.09 µg/mL)	1 to 20 (≈ 0.304 to 6.09 µg/mL)	–
Cc1nc2ccccn2c1C(=O)NCC1CCCCC1 [Compound 18, N-(Cyclohexylmethyl)-2-methylimidazo[1,2-a]pyridine-3-carboxamide]	> 20	> 20	–
Cc1nc2ccccn2c1C(=O)NCC1CCN(C(=O)OC(C)(C)C)CC1 [Compound 19, tert-Butyl 4-((2-methylimidazo[1,2-a]pyridine-3-carboxamido)methyl)piperidine-1-carboxylate]	> 20	> 20	–
Cc1nc2ccccn2c1C(=O)NCC1CCNCC1 [Compound 20, 2-Methyl-N-(piperidin-4-ylmethyl)imidazo[1,2-a]pyridine-3-carboxamide]	> 20	> 20	–

Compound	MIC [1, 3] [µM]	MIC [2, 4] [µM]	also measured
Cc1nc2ccccn2c1C(=O)NCCc1ccccc1 [Compound 21, 2-Methyl-N-phenethylimidazo[1,2-a]pyridine-3-carboxamide]	> 20	> 20	–
COc1ccc(CCNC(=O)c2c(C)nc3ccccn23)cc1 [Compound 22, N-(4-Methoxyphenethyl)-2-methylimidazo[1,2-a]pyridine-3-carboxamide]	> 20	> 20	–
Cc1nc2ccccn2c1C(=O)NCCOc1ccccc1 [Compound 23, 2-Methyl-N-(2-phenoxyethyl)imidazo[1,2-a]pyridine-3-carboxamide]	1 to 20 (≈ 0.295 to 5.91 µg/mL)	1 to 20 (≈ 0.295 to 5.91 µg/mL)	–
Cc1nc2ccccn2c1C(=O)NCCOCc1ccccc1 [Compound 24, N-(2-(Benzyloxy)ethyl)-2-methylimidazo[1,2-a]pyridine-3-carboxamide]	> 20	> 20	–
COC(=O)[C@H](Cc1ccccc1)NC(=O)c1c(C)nc2ccccn12 [Compound 25, (S)-Methyl 2-(2-methylimidazo[1,2-a]pyridine-3-carboxamido)-3-phenylpropanoate]	> 20	> 20	–
Cc1nc2ccccn2c1NC(=O)Cc1ccccc1 [Compound 26, N-(2-Methylimidazo[1,2-a]pyridin-3-yl)-2-phenylacetamide]	> 20	> 20	–
Cc1nc2c(Cl)cccn2c1C(=O)NCc1ccccc1 [Compound 27, N-Benzyl-8-chloro-2-methylimidazo[1,2-a]pyridine-3-carboxamide]	> 20	> 20	–
Cc1nc2cc(Cl)ccn2c1C(=O)NCc1ccccc1 [Compound 28, N-Benzyl-7-chloro-2-methylimidazo[1,2-a]pyridine-3-carboxamide]	1 to 20 (≈ 0.3 to 6 µg/mL)	> 20	–
Cc1nc2ccc(Cl)cn2c1C(=O)NCc1ccccc1 [Compound 29, N-Benzyl-6-chloro-2-methylimidazo[1,2-a]pyridine-3-carboxamide]	1 to 20 (≈ 0.3 to 6 µg/mL)	1 to 20 (≈ 0.3 to 6 µg/mL)	–
Cc1nc2c(C)cccn2c1C(=O)NCc1ccccc1 [Compound 30, N-Benzyl-2,8-dimethylimidazo[1,2-a]pyridine-3-carboxamide]	> 20	> 20	–
Cc1ccn2c(C(=O)NCc3ccccc3)c(C)nc2c1 [Compound 31, N-Benzyl-2,7-dimethylimidazo[1,2-a]pyridine-3-carboxamide]	< 1	1 to 20 (≈ 0.279 to 5.59 µg/mL)	–
Cc1ccc2nc(C)c(C(=O)NCc3ccccc3)n2c1 [Compound 32, N-Benzyl-2,6-dimethylimidazo[1,2-a]pyridine-3-carboxamide]	< 1	< 1	–
Cc1nc2cccc(C)n2c1C(=O)NCc1ccccc1 [Compound 33, N-Benzyl-2,5-dimethylimidazo[1,2-a]pyridine-3-carboxamide]	> 20	> 20	–
Cc1nc2ccc(F)cn2c1C(=O)NCc1ccccc1 [Compound 34, N-Benzyl-6-fluoro-2-methylimidazo[1,2-a]pyridine-3-carboxamide]	1 to 20 (≈ 0.283 to 5.67 µg/mL)	1 to 20 (≈ 0.283 to 5.67 µg/mL)	–
CCc1nc2cc(Cl)ccn2c1C(=O)NCc1ccc(N2CCC(C(=O)N(C)C)CC2)cc1 [Compound 346, 7-Chloro-N-(4-(4-(dimethylcarbamoyl)piperidin-1-yl)benzyl)-2-ethylimidazo[1,2-a]pyridine-3-carboxamide]	–	< 1	–
CCc1nc2ccc(Cl)cn2c1C(=O)NCc1ccc(N2CCC(OCc3ccc(F)cc3)CC2)cc1 [Compound 347, 6-Chloro-2-ethyl-N-(4-(4-(4-fluorobenzyloxy)piperidin-1-yl)benzyl)imidazo[1,2-a]pyridine-3-carboxamide]	–	< 1	–
CCc1nc2cc(Cl)ccn2c1C(=O)NCc1ccc(N2CCC(OCc3ccc(F)cc3)CC2)cc1 [Compound 348, 7-Chloro-2-ethyl-N-(4-(4-(4-fluorobenzyloxy)piperidin-1-yl)benzyl)imidazo[1,2-a]pyridine-3-carboxamide]	–	1 to 20 (≈ 0.521 to 10.4 µg/mL)	–
CCc1nc2cc(Cl)ccn2c1C(=O)NCc1ccc(N2CCOCC2)c(Cl)c1 [Compound 350, 7-Chloro-N-(3-chloro-4-morpholinobenzyl)-2-ethylimidazo[1,2-a]pyridine-3-carboxamide]	–	< 1	–
CCc1nc2ccc(Cl)cn2c1C(=O)NCc1ccc(N2CCC(C=O)CC2)cc1 [Compound 351, 6-Chloro-2-ethyl-N-(4-(4-formylpiperidin-1-yl)benzyl)imidazo[1,2-a]pyridine-3-carboxamide]	–	< 1	–
CCc1nc2cc(Cl)ccn2c1C(=O)NCc1ccc(N2CCC(C=O)CC2)cc1 [Compound 352, 7-Chloro-2-ethyl-N-(4-(4-formylpiperidin-1-yl)benzyl)imidazo[1,2-a]pyridine-3-carboxamide]	–	< 1	–
